Experiments:
[1] = target: Beta-3 adrenergic receptor (Homo sapiens, UniProt P13945)
[2] = target: Beta-2 adrenergic receptor (Homo sapiens, UniProt P07550)
Sequence of Beta-2 adrenergic receptor (P07550 whole entry): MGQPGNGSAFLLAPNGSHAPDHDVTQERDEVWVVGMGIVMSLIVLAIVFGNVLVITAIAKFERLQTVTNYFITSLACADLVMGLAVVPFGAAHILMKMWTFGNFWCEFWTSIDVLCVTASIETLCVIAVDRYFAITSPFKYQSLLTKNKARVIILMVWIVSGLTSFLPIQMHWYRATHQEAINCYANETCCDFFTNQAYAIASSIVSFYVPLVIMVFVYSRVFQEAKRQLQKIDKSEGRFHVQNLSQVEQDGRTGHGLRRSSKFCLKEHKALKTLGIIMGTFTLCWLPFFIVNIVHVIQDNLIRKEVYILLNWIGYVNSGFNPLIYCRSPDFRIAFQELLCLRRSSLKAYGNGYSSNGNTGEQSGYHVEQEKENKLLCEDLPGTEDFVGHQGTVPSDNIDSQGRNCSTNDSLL

Sequence of Beta-3 adrenergic receptor (P13945 whole entry): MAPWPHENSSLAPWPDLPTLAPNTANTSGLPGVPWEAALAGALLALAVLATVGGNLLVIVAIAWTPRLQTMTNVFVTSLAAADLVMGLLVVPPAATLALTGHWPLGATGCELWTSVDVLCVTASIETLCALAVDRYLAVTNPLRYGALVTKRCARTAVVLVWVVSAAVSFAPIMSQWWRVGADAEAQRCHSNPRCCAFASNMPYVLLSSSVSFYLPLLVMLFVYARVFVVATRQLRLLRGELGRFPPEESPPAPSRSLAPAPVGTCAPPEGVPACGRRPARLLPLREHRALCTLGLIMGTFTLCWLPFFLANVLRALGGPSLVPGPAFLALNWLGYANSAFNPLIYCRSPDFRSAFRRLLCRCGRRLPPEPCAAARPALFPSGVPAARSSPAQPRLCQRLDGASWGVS

Ki [1]: > 10000 nM
Ki [2]: 25.7 nM
Compound: CN(C)C(=O)COc1ccc2c(c1)C[C@@H](NC[C@H](O)c1ccc(O)c(CCO)c1)CC2 [KUR-1246]
